Assay results: patent publication EP1203771A1, “REMEDIES OR PREVENTIVES FOR FREQUENT URINATION OR URINARY INCONTINENCE” (TORAY INDUSTRIES, INC., priority 1999, dated 2001)
Counter-ions that a name gives are not always drawn.

System: Rhythmic Bladder Contraction of Rats
Experiment: Effect on rhythmic bladder contraction of rats (urethane-anesthetized, saline infusion into bladder, intravesical pressure)
Type: in vivo
Details: anesthetized female SD rats
Method: Effect on Rhythmic Bladder Contraction of Rats
Female SD rats were anesthetized with an intraperitoneal injection of urethane (1.0 g/kg). A polyethylene tube was inserted from urethral opening to the bladder and the tube was fixed by ligating. Physiological saline was appropriately infused via the tube (rate of infusion: about 0.2 ml/min; maximum dose: about 1.5 ml/rat) to induce rhythmic contraction of bladder. The rhythmic contraction of bladder was monitored by measuring the intravesical pressure through the polyethylene tube inserted into the bladder. After confirming that stable rhythmic contraction occurred at least 10 times, each test compound was intravenously administered at a doseof 1 ml/kg. If the intravesical pressure became, within 10 minutes from the administration of the test compound, not more than 50% of the intravesical pressure at the time point immediately after the administration of the test compound, it was judged that […], and the time period until the intravesical pressure again became not less than 50% was defined as the rhythmic bladder contraction-inhibiting time. As the solvent for administration of the test compounds, 5% xylitol was used for test Compounds 1, 2, 3, 4, 5, 11, 12, 21, 23 and 24; physiological saline was used for test Compounds 6, 9, 10, 13, 14, 15, 16, 17, 18, 19, 20 and 22; 10% ethanol solution was used for test Compound 7; and 10% DMSO solution was used for test Compound 8. The solvents 5% xylitol solution, 10% ethanol solution and 10% DMSO solution, each of which is said to somewhat influence on the rhythmic bladder contraction-inhibiting time, were also tested at the dose of 1 ml/kg. […]

[1] = 30 mg/kg intravenously, solvent 5% xylitol
[2] = 10 mg/kg intravenously, solvent 5% xylitol
[3] = 3 mg/kg intravenously, solvent physiological saline
[4] = 1 mg/kg intravenously, solvent physiological saline
[5] = 10 mg/kg intravenously, solvent physiological saline

O=C1Nc2c3c(nc4cccc1c24)[C@@H]1Oc2c(O)ccc4c2[C@@]12CCN(CC1CC1)[C@H](C4)[C@]2(O)C3 [Compound 1, 17-cyclopropylmethyl-6,7-dehydro-4,5α-epoxy-3,14β-dihydroxy-6,7,2',3'-[4',5'-[imino(oxomethano)]quinolino]morphinan hydrochloric acid salt]
Mean Rhythmic Bladder Contraction-inhibiting Time [1]: 6.2 min

CN1CC[C@]23c4c5ccc(O)c4O[C@H]2c2nc4ccccc4c(N)c2C[C@@]3(O)[C@H]1C5 [Compound 2, 17-methyl-6,7-dehydro-4,5α-epoxy-3,14β-dihydroxy-6,7,2',3'-(4'-aminoquinolino)morphinan methanesulfonic acid salt]
Mean Rhythmic Bladder Contraction-inhibiting Time [2]: 4.5 min

Oc1ccc2c3c1O[C@H]1c4nc5c(cc4C[C@@]4(O)[C@@H](C2)N(CC2CC2)CC[C@]314)cc1c2c(cccc25)CC1 [Compound 3, 17-cyclopropylmethyl-6,7-dehydro-4,5α-epoxy-3,14β-dihydroxy-6,7,2',3'-(6',6"-ethano-7',8'-benzoquinolino)morphinan methanesulfonic acid salt]
Mean Rhythmic Bladder Contraction-inhibiting Time (20 mg/kg intravenously, solvent 5% xylitol): 5.0 min

Cc1c2c(nc3ccccc13)[C@@H]1Oc3c(O)ccc4c3[C@@]13CCN(C)[C@H](C4)[C@]3(O)C2 [Compound 4, 17-methyl-6,7-dehydro-4,5α-epoxy-3,14β-dihydroxy-6,7,2',3'-(4'-methylquinolino)morphinan methanesulfonic acid salt]
Mean Rhythmic Bladder Contraction-inhibiting Time [2]: 13.9 min

CN1CC[C@]23c4c5ccc(O)c4O[C@H]2c2nc4ccccc4c(O)c2C[C@@]3(O)[C@H]1C5 [Compound 5, 17-methyl-6,7-dehydro-4,5α-epoxy-3,14β-dihydroxy-6,7,2',3'-(4'-hydroxyquinolino)morphinan methanesulfonic acid salt]
Mean Rhythmic Bladder Contraction-inhibiting Time [1]: 5.7 min

CN1CC[C@]23c4c5ccc(O)c4O[C@H]2c2nc4ccccc4cc2C[C@@]3(O)[C@H]1C5 [Compound 6, 17-methyl-6,7-dehydro-4,5α-epoxy-3,14β-dihydroxy-6,7,2',3'-quinolinomorphinane methanesulfonic acid salt]
Mean Rhythmic Bladder Contraction-inhibiting Time [3]: 24.1 min

Oc1ccc2c3c1O[C@H]1c4nc5ccccc5cc4C[C@@]4(O)[C@@H](C2)N(CCc2ccccc2)CC[C@]314 [Compound 7, 17-phenethyl-6,7-dehydro-4,5 α-epoxy-3,14β-dihydroxy-6,7,2',3'-quinolinomorphinan methanesulfonic acid salt]
Mean Rhythmic Bladder Contraction-inhibiting Time (5 mg/kg intravenously, solvent 10% ethanol solution): 17.1 min

Oc1ccc2c3c1O[C@H]1c4nc5ccccc5cc4C[C@@]4(O)[C@@H](C2)N(CCc2cccs2)CC[C@]314 [Compound 8, 17-(2-thienyl)ethyl-6,7-dehydro-4,5α-epoxy-3,14β-dihydroxy-6,7,2',3'-quinolinomorphinan methanesulfonic acid salt]
Mean Rhythmic Bladder Contraction-inhibiting Time (10 mg/kg intravenously, solvent 10% DMSO solution): 19.5 min

CO[C@@]12Cc3cc4ccccc4nc3[C@@H]3Oc4c(O)ccc5c4[C@@]31CCN(C)[C@@H]2C5 [Compound 9, 17-methyl-6,7-dehydro-4,5 α-epoxy-3-hydroxy-14 β -methoxy-6,7,2',3'-quinolinomorphinan methanesulfonic acid salt]
Mean Rhythmic Bladder Contraction-inhibiting Time [4]: 7.3 min

CN1CC[C@]23c4c5ccc(O)c4O[C@H]2c2nc4c(Cl)cccc4cc2C[C@@]3(O)[C@H]1C5 [Compound 10, 17-methyl-6,7-dehydro-4,5α-epoxy-3,14β-dihydroxy-6,7,2',3'-(8'-chloroquinolino)morphinan methanesulfonic acid salt]
Mean Rhythmic Bladder Contraction-inhibiting Time [5]: 7.4 min

CN1CC[C@]23c4c5ccc(O)c4O[C@H]2c2nc4ccc(Cl)cc4cc2C[C@@]3(O)[C@H]1C5 [Compound 11, 17-methyl-6,7-dehydro-4,5α-epoxy-3,14β-dihydroxy-6,7,2',3'-(6'-chloroquinolino)morphinan methanesulfonic acid salt]
Mean Rhythmic Bladder Contraction-inhibiting Time [2]: 12.4 min

CN1CC[C@]23c4c5ccc(O)c4O[C@H]2c2nc4cccc(Cl)c4cc2C[C@@]3(O)[C@H]1C5 [Compound 12, 17-methyl-6,7-dehydro-4,5α-epoxy-3,14β-dihydroxy-6,7,2',3'-(5'-chloroquinolino)morphinan tartaric acid salt]
Mean Rhythmic Bladder Contraction-inhibiting Time (0.3 mg/kg intravenously, solvent 5% xylitol): 14.6 min

Cc1cccc2cc3c(nc12)[C@@H]1Oc2c(O)ccc4c2[C@@]12CCN(C)[C@H](C4)[C@]2(O)C3 [Compound 13, 17-methyl-6,7-dehydro-4,5α-epoxy-3,14β-dihydroxy-6,7,2',3'-(8'-methylquinolino)morphinan methanesulfonic acid salt]
Mean Rhythmic Bladder Contraction-inhibiting Time [4]: 6.5 min

Cc1ccc2nc3c(cc2c1)C[C@@]1(O)[C@H]2Cc4ccc(O)c5c4[C@@]1(CCN2C)[C@H]3O5 [Compound 14, 17-methyl-6,7-dehydro-4,5α-epoxy-3,14β-dihydroxy-6,7,2',3'-(6'-methylquinolino)morphinan methanesulfonic acid salt]
Mean Rhythmic Bladder Contraction-inhibiting Time [3]: 12.3 min

CN1CC[C@]23c4c5ccc(O)c4O[C@H]2c2nc4c(F)cccc4cc2C[C@@]3(O)[C@H]1C5 [Compound 15, 17-methyl-6,7-dehydro-4,5α-epoxy-3,14β-dihydroxy-6,7,2',3'-(8'-fluoroquinolino)morphinan tartaric acid salt]
Mean Rhythmic Bladder Contraction-inhibiting Time [4]: 10.7 min

CC(=O)Oc1ccc2c3c1O[C@H]1c4nc5ccccc5cc4C[C@@]4(OC(C)=O)[C@@H](C2)N(C)CC[C@]314 [Compound 16, 17-methyl-6,7-dehydro-4,5α-epoxy-3,14β-diacetoxy-6,7,2',3'-quinolinomorphinan tartaric acid salt]
Mean Rhythmic Bladder Contraction-inhibiting Time (0.3 mg/kg intravenously, solvent physiological saline): 15.0 min

CC(=O)O[C@@]12Cc3cc4ccccc4nc3[C@@H]3Oc4c(O)ccc5c4[C@@]31CCN(C)[C@@H]2C5 [Compound 17, 17-methyl-6,7-dehydro-4,5α-epoxy-3-hydroxy-14β-acetoxy-6,7,2',3'-quinolinomorphinan tartaric acid salt]
Mean Rhythmic Bladder Contraction-inhibiting Time [4]: 7.4 min

CC(=O)Oc1ccc2c3c1O[C@H]1c4nc5ccccc5cc4C[C@@]4(O)[C@@H](C2)N(C)CC[C@]314 [Compound 18, 17-methyl-6,7-dehydro-4,5α-epoxy-3-acetoxy-14β-hydroxy-6,7,2',3'-quinolinomorphinane tartaric acid salt]
Mean Rhythmic Bladder Contraction-inhibiting Time [4]: 6.6 min

COc1ccc2c3c1O[C@H]1c4nc5ccccc5cc4C[C@@]4(O)[C@@H](C2)N(C)CC[C@]314 [Compound 19, 17-methyl-6,7-dehydro-4,5α-epoxy-3-methoxy-14β-hydroxy-6,7,2',3'-quinolinomorphinan tartaric acid salt]
Mean Rhythmic Bladder Contraction-inhibiting Time [4]: 7.7 min

CN1CC[C@]23c4c5cccc4O[C@H]2c2nc4ccccc4cc2C[C@@]3(O)[C@H]1C5 [Compound 20, 17-methyl-6,7-dehydro-4,5α-epoxy-14β-hydroxy-6,7,2',3'-quinolinomorphinan tartaric acid salt]
Mean Rhythmic Bladder Contraction-inhibiting Time [4]: 11.1 min

Oc1ccc2c3c1O[C@H]1c4nc5ccccc5cc4C[C@@]4(O)[C@@H](C2)N(CC2CC2)CC[C@]314 [Compound 21, 17-cyclopropylmethyl-6,7-dehydro-4,5α-epoxy-3,14β-dihydroxy-6,7,2',3'-quinolinomorphinan methanesulfonic acid salt]
Mean Rhythmic Bladder Contraction-inhibiting Time [2]: 10.0 min

C=CCN1CC[C@]23c4c5ccc(O)c4O[C@H]2c2nc4ccccc4cc2C[C@@]3(O)[C@H]1C5 [Compound 22, 17-allyl-6,7-dehydro-4,5α-epoxy-3,14β-dihydroxy-6,7,2',3'-quinolinomorphinan methanesulfonic acid salt]
Mean Rhythmic Bladder Contraction-inhibiting Time [5]: 1.4 min

Cc1ccc(CCN2CC[C@]34c5c6ccc(O)c5O[C@H]3c3nc5ccccc5cc3C[C@@]4(O)[C@H]2C6)cc1 [Compound 23, 17-(4-methylphenyl)ethyl-6,7-dehydro-4,5α-epoxy-3,14β-dihydroxy-6,7,2',3'-quinolinomorphinan methanesulfonic acid salt]
Mean Rhythmic Bladder Contraction-inhibiting Time [2]: 9.2 min

Oc1ccc2c3c1O[C@H]1c4nc5ccccc5cc4C[C@@]4(O)[C@@H](C2)N(CCc2ccc(F)cc2)CC[C@]314 [Compound 24, 17-(4-fluorophenyl)ethyl-6,7-dehydro-4,5α-epoxy-3,14β-dihydroxy-6,7,2',3'-quinolinomorphinan methanesulfonic acid salt]
Mean Rhythmic Bladder Contraction-inhibiting Time [2]: 2.3 min
